In patent US10611729B2, “Farnesoid X receptor antagonists” (City of Hope, priority 2014, dated 2020):
Read-outs that look alike come from different tables or passages of the source.

Tests used:
FXR [1] = target: T1, FXR (Homo sapiens, UniProt Q96RI1); experiment: GeneBLAzer FXR cell-based antagonistic assay (in presence of 400 nM GW4064); parameters: the Gal4 DBD was fused to the LBD of FXR in this assay; host or cells: GeneBLAzer FXR-UAS-bla HEK 293T cells; settings: for IC50: with 400 nM GW4064, read-out: GB FXR Cell Anta. IC50
T1 sequence (Q96RI1 262-486 limits assumed): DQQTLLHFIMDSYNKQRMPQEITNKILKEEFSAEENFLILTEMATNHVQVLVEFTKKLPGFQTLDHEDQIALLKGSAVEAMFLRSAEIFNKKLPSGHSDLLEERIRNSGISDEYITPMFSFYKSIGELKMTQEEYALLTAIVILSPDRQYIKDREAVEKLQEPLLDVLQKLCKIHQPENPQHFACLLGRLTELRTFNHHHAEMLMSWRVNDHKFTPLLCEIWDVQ
Protocol: A GeneBLAzer FXR cell-based assay was used to investigate the cellular activities of the 1,3,4-trisubstituted-pyrazol-4-carboxamide analogs. The assay detects the levels of a […] reporter controlled by a promoter containing the binding site of the DNA binding domain (DBD) of the GAL4 transcription factor; the Gal4 DBD was fused to the LBD of FXR in this assay.^35
FXR transactivation assays were performed using GeneBLAzer FXR-UAS-bla HEK 293T cells (Invitrogen). Cells were maintained according to the manufacturer's instructions. […] Plates were then incubated in dark for 90 min at room temperature before measuring the fluorescent emissions at 460 nm and 535 nm (using excitation at 400 nm) with an Envision plate reader with bottom read capacity. After background signal subtraction for individual emission channels, emission signals at 460 and 535 nm from each well were used to determine the ratio of 460 nm/535 nm. […] The % activation was calculated using equation 2.
The % inhibition was calculated using equation 3.

FXR [2] = target: T1, FXR; experiment: FXR TR-FRET binding assay (DY246 fluorescent probe); settings: for inhibition at 0.493 µM: at 493 nM; for IC50: mean ± SE; for inhibition at 0.164 µM: at 164 nM
Protocol: The FXR TR-FRET binding assay was performed as previously described^23 with modifications. […] The plate was spun down after a brief shake and incubated at room temperature for 20 min. The TR-FRET emission signals at 520 nm and 490 nm for each well was then collected using a PHERAstar plate reader (BMG LABTECH, Cary, N.C.) with an excitation wavelength of 337 nm, 100-μs delay time, and 200-μs integration time. The 520 nm/490 nm ratio from each well was then calculated. […] The % inhibition of tested chemicals at given concentration was calculated based on negative and positive controls using equation 1.

[3] = tested on: GeneBLAzer FXR-UAS-bla HEK 293T cells; settings: human, 16 h
Protocol: To examine if certain chemical antagonistic effect was caused by cytotoxicity, the same GeneBLAzer FXR cells were used to perform cytotoxicity assay. This assay was set up like the FXR agonistic assay, with the exception of signal reading. Instead of detecting the reporter activities, CellTiter-Glo® assay was used to detect cell viability. DMSO with cells or without cells group were served as negative (0% Inhibition) or positive (100% Inhibition), respectively.
Cytotoxicity assays were performed side-by-side with the FXR agonistic assay using GeneBLAzer FXR-UAS-bla HEK 293T cells with CellTiter-Glo® Luminescent Cell Viability Assay reagent (Promega). Briefly, cells were maintained in DMEM supplemented with 10% dialyzed FBS, 0.1 mM non-essential amino acids, 25 mM HEPES, 100 μg/ml of hygromycin B, 100 μg/ml of zeocin, 100 units/ml penicillin and 100 μg/ml streptomycin in regular tissue culture flasks. […] As a positive control, the wells in column 24 of each plate were filled with 30 μL assay medium along with 0.5% DMSO. The final DMSO concentration was 0.5% in each assay well. After a 16 h incubation in a cell culture incubator at 37° C., the cell plates were cooled at room temperature for 20 min and then CellTiter-Glo® reagent 20 μl/well was added followed by an incubation for 20 min in the dark to allow the development of optimal luminescence signal. The luminescence signal from each well in plates was collected with an Envision plate reader equipped with Ultra-sensitive Luminescence detector. The DMSO group and no cell group served as negative (0% activation) and positive (100% activation) controls, respectively. The % inhibition was calculated using equation 4 below.

[4] = read-out: GB FXR Cell Anta. % Inh.
[5] = read-out: FXR TR-FRET Binding % Inh.

Cc1ccc(-c2nn(-c3ccc(F)cc3)cc2C(=O)Nc2ccc(C)c(S(=O)(=O)N3CCOCC3)c2)cc1 [Compound 4a, 1-(4-fluorophenyl)-N-(4-methyl-3-(morpholinosulfonyl)phenyl)-3-p-tolyl-1H-pyrarazole-4-carboxamide]
inhibition at 40 µM (FXR [1]; [4]): 72 ± 2.2% | IC50 (FXR [1]): 2490 ± 6 nM | inhibition at 0.493 µM (FXR [2]; [5]): 95 ± 1.2% | IC50 (FXR [2]): 24.3 ± 0.6 nM | GB FXR Cell Cyto % Inh. ([3]; 40 μM): 18.5 ± 1.0%

Cc1ccc(-c2nn(-c3cccc(Cl)c3)cc2C(=O)Nc2ccc(C)c(S(=O)(=O)N3CCOCC3)c2)cc1 [Compound 4b, 1-(3-Chlorophenyl)-N-(4-methyl-3-(morpholinosulfonyl)phenyl)-3-(p-tolyl)-1H-pyrazole-4-carboxamide]
inhibition at 40 µM (FXR [1]; [4]): 60.6 ± 0.9% | IC50 (FXR [1]): 5910 ± 150 nM | inhibition at 0.164 µM (FXR [2]; [5]): 99.3 ± 1.1% | IC50 (FXR [2]): 10.4 ± 0.9 nM

Cc1ccc(-c2nn(-c3ccc(Cl)cc3Cl)cc2C(=O)Nc2ccc(C)c(S(=O)(=O)N3CCOCC3)c2)cc1 [Compound 4c, 1-(2,4-Dichlorophenyl)-N-(4-methyl-3-(morpholinosulfonyl)phenyl)-3-(p-tolyl)-1H-pyrazole-4-carboxamide]
inhibition at 40 µM (FXR [1]; [4]): 89.9 ± 1.9% | IC50 (FXR [1]): 1240 ± 120 nM | inhibition at 0.164 µM (FXR [2]; [5]): 120 ± 7.8% | IC50 (FXR [2]): 14.1 ± 0.3 nM

Cc1ccc(-c2nn(-c3cccc(C(F)(F)F)c3)cc2C(=O)Nc2ccc(C)c(S(=O)(=O)N3CCOCC3)c2)cc1 [Compound 4d, N-(4-Methyl-3-(morpholinosulfonyl)phenyl)-3-(p-tolyl)-1-(3-(trifluoromethyl)phenyl)-1H-pyrazole-4-carboxamide]
inhibition at 40 µM (FXR [1]; [4]): 54.8 ± 1.3% | IC50 (FXR [1]): 22300 ± 1140 nM | inhibition at 0.164 µM (FXR [2]; [5]): 77.5 ± 4.3% | IC50 (FXR [2]): 23.9 ± 2.1 nM | GB FXR Cell Cyto % Inh. ([3]; 40 μM): 7.3 ± 0.2%

Cc1ccc(-c2nn(-c3nc4ccccc4s3)cc2C(=O)Nc2ccc(C)c(S(=O)(=O)N3CCOCC3)c2)cc1 [Compound 4e, 1-(Benzo[d]thiazol-2-yl)-N-(4-methyl-3-(morpholinosulfonyl)phenyl)-3-(p-tolyl)-1H-pyrazole-4-carboxamide]
inhibition at 40 µM (FXR [1]; [4]): 79.1 ± 2.4% | IC50 (FXR [1]): 7910 ± 1160 nM | inhibition at 0.164 µM (FXR [2]; [5]): 102 ± 2.8% | IC50 (FXR [2]): 17.7 ± 0.4 nM | fold improvement of activity compared to Z26476908 (FXR [2]; text says FXR antagonistic activity / potency in hFXR, figures fit TR-FRET IC50): 3 fold | GB FXR Cell Cyto % Inh. ([3]; 13.3 μM): 11.5 ± 0.2 (13.3 μM) %

Cc1ccc(-c2nn(C(C)C)cc2C(=O)Nc2ccc(C)c(S(=O)(=O)N3CCOCC3)c2)cc1 [Compound 4f, 1-Isopropyl-N-(4-methyl-3-(morpholinosulfonyl)phenyl)-3-(p-tolyl)-1H-pyrazole-4-carboxamide]
FXR antagonistic activity, SAR statement in words (FXR [1]): retention of the antagonistic activity | inhibition at 40 µM (FXR [1]; [4]): 99.1 ± 4.4% | IC50 (FXR [1]): 1690 ± 180 nM | inhibition at 4.4 µM (FXR [2]; [5]): 131 ± 3.8% | IC50 (FXR [2]): 49.1 ± 9.9 nM

CCCCn1cc(C(=O)Nc2ccc(C)c(S(=O)(=O)N3CCOCC3)c2)c(-c2ccc(C)cc2)n1 [Compound 4g, 1-Butyl-N-(4-methyl-3-(morpholinosulfonyl)phenyl)-3-(p-tolyl)-1H-pyrazole-4-carboxamide]
FXR antagonistic activity, SAR statement in words (FXR [1]): retention of the antagonistic activity | inhibition at 20 µM (FXR [1]; [4]): 97.9 ± 8.1% | IC50 (FXR [1]): 11510 ± 70 nM | inhibition at 1.5 µM (FXR [2]; [5]): 130.1 ± 0.7% | IC50 (FXR [2]): 52.5 ± 4.1 nM | GB FXR Cell Cyto % Inh. ([3]; 4.4 μM): 10.3 ± 0.3%

Cc1ccc(-c2nn(Cc3ccc4ccccc4c3)cc2C(=O)Nc2ccc(C)c(S(=O)(=O)N3CCOCC3)c2)cc1 [Compound 4h, N-(4-Methyl-3-(morpholinosulfonyl)phenyl)-1-(naphthalen-2-ylmethyl)-3-(p-tolyl)-1H-pyrazole-4-carboxamide]
FXR antagonistic activity, SAR statement in words (FXR [1]): enhanced antagonistic activity | inhibition at 40 µM (FXR [1]; [4]): 84.4 ± 4.1% | IC50 (FXR [1]): 844 ± 10.3 nM | inhibition at 0.164 µM (FXR [2]; [5]): 97.8 ± 1.2% | IC50 (FXR [2]): 10.2 ± 1.6 nM | GB FXR Cell Cyto % Inh. ([3]; 4.4 μM): 7.9 ± 0.3 (4.4 μM) %

Cc1ccc(-c2nn(CC3CC3)cc2C(=O)Nc2ccc(C)c(S(=O)(=O)N3CCOCC3)c2)cc1 [Compound 4i, 1-(Cyclopropylmethyl)-N-(4-methyl-3-(morpholinosulfonyl)phenyl)-3-(p-tolyl)-1H-pyrazole-4-carboxamide]
inhibition at 40 µM (FXR [1]; [4]): 100 ± 3.2% | IC50 (FXR [1]): 849 ± 69 nM | fold decrease of activity for hFXR compared to Z26476908 (FXR [2]): 2 fold | inhibition at 1.5 µM (FXR [2]; [5]): 105 ± 4.9% | IC50 (FXR [2]): 76.9 ± 2.7 nM

Cc1ccc(-c2nn(Cc3cccc(C(F)(F)F)c3)cc2C(=O)Nc2ccc(C)c(S(=O)(=O)N3CCOCC3)c2)cc1 [Compound 4k, N-(4-methyl-3-(morpholinosulfonyl)phenyl)-3-(p-tolyl)-1-(3-(trifluoromethyl)benzyl)-1H-pyrazole-4-carboxamide]
inhibition at 40 µM (FXR [1]; [4]): 93.4 ± 3.9% | IC50 (FXR [1]): 515 ± 25.4 nM | inhibition at 0.164 µM (FXR [2]; [5]): 99.2 ± 6.4% | IC50 (FXR [2]): 18.4 ± 1.2 nM

Cc1ccc(-c2nn(CCCCO)cc2C(=O)Nc2ccc(C)c(S(=O)(=O)N3CCOCC3)c2)cc1 [Compound 4l, 1-(4-Hydroxybutyl)-N-(4-methyl-3-(morpholinosulfonyl)phenyl)-3-(p-tolyl)-1H-pyrazole-4-carboxamide]
inhibition at 40 µM (FXR [1]; [4]): 97.6 ± 3.7% | IC50 (FXR [1]): 2610 ± 290 nM | inhibition at 0.493 µM (FXR [2]; [5]): 89.3 ± 0.1% | IC50 (FXR [2]): 130 ± 16 nM | GB FXR Cell Cyto % Inh. ([3]; 40 μM): 5.9 ± 0.2%

COc1cccc(Cn2cc(C(=O)Nc3ccc(C)c(S(=O)(=O)N4CCOCC4)c3)c(C(C)C)n2)c1 [Compound 4m, 3-Isopropyl-1-(3-methoxybenzyl)-N-(4-methyl-3-(morpholinosulfonyl)phenyl)-1H-pyrazole-4-carboxamide]
FXR antagonistic activity, SAR statement in words (FXR [1]): decreased the potency and affinity | inhibition at 40 µM (FXR [1]; [4]): 99.2 ± 2.7% | IC50 (FXR [1]): 3110 ± 580 nM | inhibition at 4.4 µM (FXR [2]; [5]): 101 ± 5.6% | IC50 (FXR [2]): 199 ± 21.2 nM

COc1cccc(-c2nn(C(C)C)cc2C(=O)Nc2ccc(C)c(S(=O)(=O)N3CCOCC3)c2)c1 [Compound 4n, 1-Isopropyl-3-(3-methoxyphenyl)-N-(4-methyl-3-(morpholinosulfonyl)phenyl)-1H-pyrazole-4-carboxamide]
inhibition at 40 µM (FXR [1]; [4]): 97.8 ± 1.5% | IC50 (FXR [1]): 3490 ± 640 nM | inhibition at 13.3 µM (FXR [2]; [5]): 150 ± 6.9% | IC50 (FXR [2]): 160 ± 22.6 nM | GB FXR Cell Cyto % Inh. ([3]; 4.4 μM): 10.8 ± 0.2%

COc1cccc(Cn2cc(C(=O)Nc3ccc(C)c(S(=O)(=O)N4CCOCC4)c3)c(-c3cccc(OC)c3)n2)c1 [Compound 4o, 1-(3-Methoxybenzyl)-3-(3-methoxyphenyl)-N-(4-methyl-3-(morpholinosulfonyl)phenyl)-1H-pyrazole-4-carboxamide]
FXR antagonistic activity, SAR statement in words (FXR [1]): slightly decreased antagonistic activity | inhibition at 40 µM (FXR [1]; [4]): 89.4 ± 4.2% | IC50 (FXR [1]): 1240 ± 90 nM | inhibition at 0.493 µM (FXR [2]; [5]): 114 ± 3.3% | IC50 (FXR [2]): 42.8 ± 0.5 nM

COc1cccc(Cn2cc(C(=O)Nc3ccc(C)c(S(=O)(=O)N4CCOCC4)c3)c(-c3ccc(C(F)(F)F)cc3)n2)c1 [Compound 4q, 1-(3-Methoxybenzyl)-N-(4-methyl-3-(morpholinosulfonyl)phenyl)-3-(4-(trifluoromethyl)phenyl)-1H-pyrazole-4-carboxamide]
inhibition at 40 µM (FXR [1]; [4]): 97.6 ± 0.9% | IC50 (FXR [1]): 592.7 ± 3 nM | inhibition at 0.164 µM (FXR [2]; [5]): 109 ± 3.6% | IC50 (FXR [2]): 30.9 ± 3.6 nM

COCCc1nn(C(C)C)cc1C(=O)Nc1ccc(C)c(S(=O)(=O)N2CCOCC2)c1 [Compound 4r]
FXR antagonistic activity, SAR statement in words (FXR [1]): loss of potency | inhibition at 40 µM (FXR [1]; [4]): 62.5 ± 0.8% | IC50 (FXR [1]): 29600 ± 1750 nM | inhibition at 40 µM (FXR [2]; at 40 μM, read-out: FXR TR-FRET Binding % Inh.): 98.2 ± 3.8% | IC50 (FXR [2]): 3420 ± 190 nM

COCCc1nn(Cc2cccc(OC)c2)cc1C(=O)Nc1ccc(C)c(S(=O)(=O)N2CCOCC2)c1 [Compound 4s]
FXR antagonistic activity, SAR statement in words (FXR [1]): loss of potency | inhibition at 40 µM (FXR [1]; [4]): 95.9 ± 2.4% | IC50 (FXR [1]): 11100 ± 640 nM | inhibition at 13.3 µM (FXR [2]; [5]): 113.5 ± 0.8% | IC50 (FXR [2]): 390 ± 9.4 nM

COc1cccc(Cn2cc(CNc3ccc(C)c(S(=O)(=O)N4CCOCC4)c3)c(-c3cccc(OC)c3)n2)c1 [Compound 9-3, N-((1-(3-Methoxybenzyl)-3-(3-methoxyphenyl)-1H-pyrazol-4-yl)methyl)-4-methyl-3-(morpholinosulfonyl)aniline]
inhibition at 40 µM (FXR [1]; [4]): 3.1 ± 0.1% | inhibition at 1.48 µM (FXR [2]; at 1.48 μM, read-out: FXR TR-FRET Binding % Inh.): 39.8 ± 1.8%
